Data taken from PubChem BioAssay (NCI).
“And” between values parts separate entries of the source, which are not always exact repeats. Equal entries are not always repeated.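 Growth conditions: 96-well plates. Treatment: test compound, 48 hours, 5 concentrations. Analysis: linear interpolation between bracketing concentrations; unreached endpoints set to highest concentration. GI50 is the concentration that inhibits growth by half. TGI is the concentration that stops growth completely.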

tested on: A549 NSCLC; test: growth of human tumour cells (NCI), 48 h

**Q.** `CCOc1ccc2nc(NC(=O)/C(CC(=O)CC(C3=C(O)c4ccccc4CC3=O)c3ccccc3)=N\O)sc2c1` (centres undefined) was tested. Which TGI did it give?
**A.** Its TGI is > 100 µM.

**Q.** For `CCN1CCN(c2nc(NCCNc3ccnc4cc(Cl)ccc34)c3ccccc3n2)CC1`, which GI50 is on record?
**A.** Its GI50 is 2.21 µM.

**Q.** And the TGI?
**A.** The TGI was 8.48 µM.

**Q.** Which TGI does the source give for `CN(C)c1ccc2c(c1)oc(=O)c1ccccc12` here?
**A.** The TGI was 34.6 µM.

**Q.** How did the TGI turn out when `CC1=C[C@@H]2Cc3occc3C(C)(C)[C@@H]2CC1` was run?
**A.** Its TGI is 49.6 µM.

**Q.** Which results are given for `CC(=O)c1ccc(N(/C=C/C(=O)C(F)(F)F)CC(=O)c2ccc(Cl)c(Cl)c2)cc1`?
**A.** GI50: 14.2 µM; TGI: 33.5 µM

**Q.** For `O=c1c(Cl)c(Cl)cnn1-c1ccccc1`, which TGI is on record?
**A.** The TGI was 26.9 µM and 37.6 µM.

**Q.** For `COc1cccc(-c2nn(-c3ccccc3)cc2-c2ccnc(NCCCNS(=O)(=O)c3cccc(F)c3)c2)c1`, which GI50 is on record?
**A.** Its GI50 is 6.34 µM.

**Q.** And the TGI?
**A.** Its TGI is > 100 µM.

**Q.** How did the TGI turn out when `NC1(CCCCCCCCCCC(=O)O)CNCCNCCNCCNC1` was run?
**A.** The TGI was > 100 µM.

**Q.** With `C#CC(C)(C)Oc1cc(O)c2c(=O)c3ccccc3n(C)c2c1` as the compound, how does the TGI read?
**A.** Its TGI is > 100 µM.

**Q.** How did the GI50 turn out when `CC[n+]1ccc2c(c1)C(=O)c1nccc3c1c-2nc1ccccc13` was run?
**A.** The GI50 was 0.958 µM.

**Q.** And the TGI?
**A.** Its TGI is 13.5 µM.

tested on: A498 renal; test: growth of human tumour cells (NCI), 48 h

**Q.** With `N#Cc1nc(-c2ccc(F)cc2)oc1S(=O)(=O)N1CCOCC1` as the compound, how does the GI50 read?
**A.** Its GI50 is 15.6 µM.

**Q.** And the TGI?
**A.** The TGI was 32 µM.

**Q.** Which GI50 does the source give for `Cc1c(Cl)cccc1Nc1ncccc1C(=O)O` here?
**A.** Its GI50 is 34.3 µM.

**Q.** And the TGI?
**A.** The TGI was > 100 µM.

**Q.** Which TGI does the source give for `COc1cc2c(c(O)c1C)C(=O)C(Cl)=CC2=O` here?
**A.** The TGI was 33.9 µM.

**Q.** With `Fc1ccc(-c2nn(-c3ccccc3)cc2-c2nc3ccccc3o2)cc1` as the compound, how does the GI50 read?
**A.** The GI50 was 2.97 µM.

**Q.** And the TGI?
**A.** Its TGI is 56.7 µM.

**Q.** What does the source list for `CN=C1NC(=O)/C(=C/c2ccc3ncccc3c2)S1`?
**A.** GI50: 3.86 µM; TGI: 13.7 µM

**Q.** With `CN(C)CCNC(=O)c1cccc2nc3c(Cl)cccc3nc12` as the compound, how does the TGI read?
**A.** The TGI was 16.9 µM.

**Q.** `COc1ccc(CN2CCCC(C(=O)c3ccc(C(F)(F)F)cc3)C2)c(O)c1` (centres undefined) was tested. Which GI50 did it give?
**A.** The GI50 was 0.0189 µM.

**Q.** What about the TGI of the same compound?
**A.** The TGI was 33.1 µM.

**Q.** Which TGI does the source give for `O=S(=O)(O)C(O)/C=C/c1ccccc1` (centres undefined) here?
**A.** The TGI was > 100 µM.

**Q.** With `OCCNCO` as the compound, how does the TGI read?
**A.** The TGI was > 100 µM.

**Q.** `CC1=C2[C@@H](CC1)[C@]1(C)O[C@@](C(C)C)(C[C@H]1OC(=O)[C@H](C)O)[C@H]2OC(=O)/C=C/c1ccccc1` was tested. Which GI50 did it give?
**A.** Its GI50 is 0.236 µM.

**Q.** And the TGI?
**A.** Its TGI is 0.702 µM.

**Q.** Which results are given for `O=C(Cc1ccc(/C=C/C(=O)c2ncc[nH]2)cc1)Nc1ccc(Cl)cc1`?
**A.** GI50: 5.48 µM; TGI: 13 µM

**Q.** How did the TGI turn out when `Cc1c(C(=O)/C=C/c2cccc3ccccc23)[n+](=O)c2ccccc2n1[O-]` was run?
**A.** Its TGI is 30.8 µM.

**Q.** Which GI50 does the source give for `COC(=O)c1c2c(c(C)[n+]([O-])c1C)C(=O)C=CC2=O` here?
**A.** Its GI50 is 3.58 µM.

**Q.** And the TGI?
**A.** The TGI was 13.9 µM.

**Q.** Which results are given for `C[C@@H]1Cc2c([nH]c3ccccc23)[C@@H](c2c(F)cc(/C=C/C(=O)O)cc2F)N1CC(C)(C)F`?
**A.** GI50: 8.77 µM; TGI: 23.7 µM

**Q.** For `O=C1CCC(NC(=O)c2ccccc2)C(=O)N1` (centres undefined), which TGI is on record?
**A.** The TGI was > 100 µM.

**Q.** With `CC1(C)N=C(N)N=C(N)N1c1ccc(CCCCc2ccc(S(=O)(=O)F)cc2Cl)c(Cl)c1` as the compound, how does the TGI read?
**A.** Its TGI is 261 µM.

**Q.** With `CN(C)c1ccc(/C=C2\C[N+](C)(C)C/C(=C\c3ccc(N(C)C)cc3)C2=O)cc1` as the compound, how does the TGI read?
**A.** The TGI was > 100 µM.

**Q.** Which results are given for `NS(=O)(=O)c1ccc(-n2nc(-c3ccc(Br)cc3)ccc2=O)cc1`?
**A.** GI50: > 10 µM; TGI: > 10 µM

**Q.** With `Cn1cc(C2=C(c3ccc(OC[C@@H](O)CO)cc3)C(=O)NC2=O)c2ccccc21` as the compound, how does the GI50 read?
**A.** Its GI50 is 3.54 µM.

**Q.** What about the TGI of the same compound?
**A.** Its TGI is 15.3 µM.

**Q.** How did the GI50 turn out when `CCOC(=O)c1cc(-c2ccc([N+](=O)[O-])cc2)n(-c2ccc(C(=O)O)c(O)c2)c1C` was run?
**A.** The GI50 was 10.1 µM.

**Q.** What about the TGI of the same compound?
**A.** The TGI was 21.9 µM.

**Q.** `N#Cc1cnn2ccn(C3OC(COC(=O)c4ccccc4)C(OC(=O)c4ccccc4)C3OC(=O)c3ccccc3)c12` (centres undefined) was tested. Which TGI did it give?
**A.** The TGI was 21.5 µM.

**Q.** With `CCOc1ccc2nc(NC(=O)/C(CC(=O)CC(C3=C(O)c4ccccc4CC3=O)c3ccccc3)=N\O)sc2c1` (centres undefined) as the compound, how does the TGI read?
**A.** The TGI was > 100 µM.

**Q.** With `CCN1CCN(c2nc(NCCNc3ccnc4cc(Cl)ccc34)c3ccccc3n2)CC1` as the compound, how does the GI50 read?
**A.** Its GI50 is 1.68 µM.

**Q.** And the TGI?
**A.** The TGI was 3.35 µM.

**Q.** With `CN(C)c1ccc2c(c1)oc(=O)c1ccccc12` as the compound, how does the TGI read?
**A.** The TGI was 33 µM.

**Q.** How did the TGI turn out when `CC1=C[C@@H]2Cc3occc3C(C)(C)[C@@H]2CC1` was run?
**A.** The TGI was 49.6 µM.

**Q.** How did the GI50 turn out when `CC(=O)c1ccc(N(/C=C/C(=O)C(F)(F)F)CC(=O)c2ccc(Cl)c(Cl)c2)cc1` was run?
**A.** Its GI50 is 14.5 µM.

**Q.** What about the TGI of the same compound?
**A.** Its TGI is 28.2 µM.

**Q.** With `O=c1c(Cl)c(Cl)cnn1-c1ccccc1` as the compound, how does the TGI read?
**A.** The TGI was 31.6 µM and 31.2 µM.

**Q.** With `COc1cccc(-c2nn(-c3ccccc3)cc2-c2ccnc(NCCCNS(=O)(=O)c3cccc(F)c3)c2)c1` as the compound, how does the GI50 read?
**A.** Its GI50 is 3.52 µM.

**Q.** And the TGI?
**A.** Its TGI is > 100 µM.

**Q.** For `NC1(CCCCCCCCCCC(=O)O)CNCCNCCNCCNC1`, which TGI is on record?
**A.** The TGI was 46.7 µM.

**Q.** `C#CC(C)(C)Oc1cc(O)c2c(=O)c3ccccc3n(C)c2c1` was tested. Which TGI did it give?
**A.** Its TGI is > 100 µM.
